Reference: patent US8012956B2, “Tropane compounds” (Exelixis, Inc., priority 2007, dated 2011)

Biological target: HSP90 (Homo sapiens, UniProt P07900)
Assay: HSP90 inhibition (HSP90 IC50)
Assay type: biochemical

An IC50 of under 500 nM was found for `CCCNc1cc(C(=O)N[C@H]2C[C@H]3CC[C@@H](C2)N3c2ccc(C(=O)C3CC3)cn2)ccc1C(N)=O` [N4-{8-[5-(cyclopropylcarbonyl)pyridin-2-yl]-8-azabicyclo[3.2.1]oct-3-endo-yl}-2-(propylamino)benzene-1,4-dicarboxamide] in this work.
An IC50 of under 500 nM was found for `NC(=O)c1ccc(C(=O)N[C@H]2C[C@H]3CC[C@@H](C2)N3c2ccc(C(=O)C3CC3)cn2)cc1Nc1ccncc1` [N4-{8-[5-(cyclopropylcarbonyl)pyridin-2-yl]-8-azabicyclo[3.2.1]oct-3-endo-yl}-2-(pyridin-4-ylamino)benzene-1,4-dicarboxamide] in this work.
An IC50 of under 500 nM was found for `CC(C)OCCNc1cc(C(=O)N[C@H]2C[C@H]3CC[C@@H](C2)N3c2ccc(C(=O)C3CC3)cn2)ccc1C(N)=O` [N4-{8-[5-(cyclopropylcarbonyl)pyridin-2-yl]-8-azabicyclo[3.2.1]oct-3-endo-yl}-2-({2-[(1-methylethyl)oxy]ethyl}amino)benzene-1,4-dicarboxamide] in this work.
An IC50 of under 500 nM was found for `CC(Nc1cc(C(=O)N[C@H]2C[C@H]3CC[C@@H](C2)N3c2ccc(C(=O)C3CC3)cn2)ccc1C(N)=O)C1CC1` (stereo partly drawn) [N4-{8-[5-(cyclopropylcarbonyl)pyridin-2-yl]-8-azabicyclo[3.2.1]oct-3-endo-yl}-2-[(1-cyclopropylethyl)amino]benzene-1,4-dicarboxamide] in this work.
An IC50 of under 500 nM was found for `CCC(CC)Nc1cc(C(=O)N[C@H]2C[C@H]3CC[C@@H](C2)N3c2ccc(C(=O)C3CC3)cn2)ccc1C(N)=O` [N4-{8-[5-(cyclopropylcarbonyl)pyridin-2-yl]-8-azabicyclo[3.2.1]oct-3-endo-yl}-2-[(1-ethylpropyl)amino]benzene-1,4-dicarboxamide] in this work.
An IC50 of under 500 nM was found for `CCC(C)Nc1cc(C(=O)N[C@H]2C[C@H]3CC[C@@H](C2)N3c2ccc(C(=O)C3CC3)cn2)ccc1C(N)=O` (stereo partly drawn) [N4-{8-[5-(cyclopropylcarbonyl)pyridin-2-yl]-8-azabicyclo[3.2.1]oct-3-endo-yl}-2-[(1-methylpropyl)amino]benzene-1,4-dicarboxamide] in this work.
An IC50 of under 500 nM was found for `NC(=O)c1ccc(C(=O)N[C@H]2C[C@H]3CC[C@@H](C2)N3c2ccc(C(=O)C3CC3)cn2)cc1NCC1CC1` [N4-{8-[5-(cyclopropylcarbonyl)pyridin-2-yl]-8-azabicyclo[3.2.1]oct-3-endo-yl}-2-[(cyclopropylmethyl)amino]benzene-1,4-dicarboxamide] in this work.
An IC50 of under 500 nM was found for `NC(=O)c1ccc(C(=O)NC2CC3CCC(C2)N3c2ccc(C(=O)C3CC3)cn2)cc1N[C@H]1CC[C@H](N2CCCCC2)CC1` (stereo partly drawn) [N4-{8-[5-(cyclopropylcarbonyl)pyridin-2-yl]-8-azabicyclo[3.2.1]oct-3-endo-yl}-2-[(trans-4-piperidin-1-ylcyclohexyl)amino]benzene-1,4-dicarboxamide] in this work.
An IC50 of under 500 nM was found for `CC[C@@H](C)Nc1cc(C(=O)NC2CC3CCC(C2)N3c2ccc(C(=O)C3CC3)cn2)ccc1C(N)=O` (stereo partly drawn) [N4-{8-[5-(cyclopropylcarbonyl)pyridin-2-yl]-8-azabicyclo[3.2.1]oct-3-endo-yl}-2-{[(1R)-1-methylpropyl]amino}benzene-1,4-dicarboxamide] in this work.
An IC50 of under 500 nM was found for `CC(C)[C@H](C)Nc1cc(C(=O)NC2CC3CCC(C2)N3c2ccc(C(=O)C3CC3)cn2)ccc1C(N)=O` (stereo partly drawn) [N4-{8-[5-(cyclopropylcarbonyl)pyridin-2-yl]-8-azabicyclo[3.2.1]oct-3-endo-yl}-2-{[(1S)-1,2-dimethylpropyl]amino}benzene-1,4-dicarboxamide] in this work.
An IC50 of under 500 nM was found for `CC[C@H](C)Nc1cc(C(=O)NC2CC3CCC(C2)N3c2ccc(C(=O)C3CC3)cn2)ccc1C(N)=O` (stereo partly drawn) [N4-{8-[5-(cyclopropylcarbonyl)pyridin-2-yl]-8-azabicyclo[3.2.1]oct-3-endo-yl}-2-{[(1S)-1-methylpropyl]amino}benzene-1,4-dicarboxamide] in this work.
An IC50 of under 500 nM was found for `NC(=O)c1ccc(C(=O)N[C@H]2C[C@H]3CC[C@@H](C2)N3c2ccc(C(=O)C3CC3)cn2)cc1NCC(F)(F)C(F)(F)F` [N4-{8-[5-(cyclopropylcarbonyl)pyridln-2-yl]-8-azabicyclo[3.2.1]oct-3-endo-yl}-2-[(2,2,3,3,3-pentafluoropropyl)amino]benzene-1,4-dicarboxamide] in this work.
